Data: patent publication US5783597A, “2,5-disubstituted thiophenes: inhibitors of 5-lipoxygenase and inducible cyclooxygenase (COX-2) enzymes, composition and use” (Ortho Pharmaceutical Corporation, priority 1997, dated 1998)

Biological target: T1, 5-lipoxygenase (5-LO) (Rattus norvegicus, UniProt P12527)
T1 construct: endogenous in cells; host or cells: intact RBL-1 (rat basophilic leukemia) cells, stimulated with calcium ionophore A23187
T1 sequence (P12527 1-673): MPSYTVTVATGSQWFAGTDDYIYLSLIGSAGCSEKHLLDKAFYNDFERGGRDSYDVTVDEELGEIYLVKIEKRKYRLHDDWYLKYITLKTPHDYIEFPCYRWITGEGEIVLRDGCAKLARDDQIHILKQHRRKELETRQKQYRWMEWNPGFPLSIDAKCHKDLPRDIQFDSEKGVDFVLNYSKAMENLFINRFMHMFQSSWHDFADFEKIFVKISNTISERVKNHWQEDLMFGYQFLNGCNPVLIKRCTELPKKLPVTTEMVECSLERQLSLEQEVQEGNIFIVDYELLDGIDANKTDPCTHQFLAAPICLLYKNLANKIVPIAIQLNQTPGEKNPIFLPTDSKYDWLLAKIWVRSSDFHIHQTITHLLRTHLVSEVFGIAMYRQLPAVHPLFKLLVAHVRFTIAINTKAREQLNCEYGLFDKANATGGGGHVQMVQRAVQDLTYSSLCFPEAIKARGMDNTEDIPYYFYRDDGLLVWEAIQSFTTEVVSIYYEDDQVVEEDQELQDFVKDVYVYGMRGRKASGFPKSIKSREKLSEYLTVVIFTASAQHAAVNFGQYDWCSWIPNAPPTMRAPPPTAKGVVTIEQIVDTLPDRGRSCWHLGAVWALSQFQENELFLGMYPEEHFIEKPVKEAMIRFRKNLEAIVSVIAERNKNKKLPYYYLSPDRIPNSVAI
Assay: RBL-1 cell 5-lipoxygenase and cyclooxygenase - Homogenate (Procedure I)
Type: biochemical
Details: RBL-1 homogenate supernatant, 5-HETE; read-out: Procedure I (5-LO) Homog. IC50
Description: RBL-1 cell 5-lipoxygenase and cyclooxugenase - Homogenate
Rat basophilic leukemia cells (RBL-1; 5×10^7 viable cells/mL) were disrupted by homogenization on ice (four 20 sec bursts) with a Brinkman polytron. […] The homogenate was then centrifuged at 9,220×g for 48 minutes at 4° C. The pellet was discarded and the supernatant was saved as the source of enzymes. The supernatant was pre-incubated for five minutes at 37° C. in the presence of 2 mM of CaCl2 and compound or vehicle (1% DMSO). The conversion of AA into products by CO and LO was initiated by adding 10 μL (50 μCi) of 1-^14 C-AA to each tube and incubated at 37° C. for 20 minutes. The reaction was stopped by adjusting the pH of each sample to 3 to 3.5 with 2M formic acid. Samples were extracted with three volumes of chloroform to isolate the products of 5-LO formed during the reaction. Fractions were dried under nitrogen, then resuspended in 40 μL of chloroform and spotted onto silica gel HL plates. The plates were developed in A-9 solvent. The dried plates were analyzed using a Bioscan Imaging TLC scanner to determine the percentage of radiolabelled M converted to 5-HETE (LO product) and PGD2 (CO product) in each sample.

IC50: 130 nM
Compound: CS(=O)(=O)Nc1ccc(Oc2ccc(F)cc2)s1 [Example 1]
